This is an account of results in ChEMBL document CHEMBL1201862, “PubChem BioAssay data set” (2004).

Test systems include SK-MEL-2; HOP-62; IGROV-1; HCC 2998; OVCAR-3; HCT-116; HCT-15; UACC-62; NCI-H23; EKVX; HOP-92; HL-60; SK-MEL-28; RPMI-8226; SK-MEL-5; UACC-257; A549; MOLT-4; COLO 205; KM12.
Experiment in all cases: NCI tumour cell line growth inhibition, 48 h

The structures appear in SMILES notation.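 The compound was tested at five concentrations on cells cultured in 96-well plates, with a 48-hour exposure period. Here, GI50 denotes the concentration required for 50% inhibition of growth.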 The source made the active and inactive calls. No stated cut-off is given here; in the data, active = GI50 up to about 1.1 µM and inactive = higher.

As to `CC(=O)O[C@H]1C(=O)[C@@]2(C)[C@H]([C@H](OC(=O)c3cccc([N+](=O)[O-])c3)[C@]3(O)C[C@H](OC(=O)[C@H](O)[C@@H](NC(=O)c4ccccc4)c4ccccc4)C(C)=C1C3(C)C)[C@]1(OC(C)=O)CO[C@@H]1C[C@@H]2O`, the GI50 in the assay on SK-MEL-2 was 0.0126 µM (active); in the assay with HOP-62, 0.0107 µM (active); in the assay with IGROV-1 it was 0.00783 µM (active); in the assay on HCC 2998 it was 0.00762 µM (active); in the assay on OVCAR-3 it was < 0.0025 µM (active); with HCT-116, 0.00533 µM (active). Besides, the GI50 in the assay with HCT-15 was 0.438 µM; in the assay on UACC-62, 0.0153 µM (active); with NCI-H23 it was 0.00912 µM (active); in the assay on EKVX it was 2.78 µM (inactive); in the assay with HOP-92, 0.022 µM (active); in the assay on HL-60, < 0.0025 µM (active). Moreover, the GI50 was 0.0157 µM (active) with SK-MEL-28; 0.00341 µM (active) in the assay with RPMI-8226; 0.00582 µM (active) in the assay with SK-MEL-5; < 0.0025 µM (active) in the assay on UACC-257; 0.014 µM (active) in the assay with A549; 0.00509 µM (active) in the assay with MOLT-4. Besides, the GI50 in the assay with COLO 205 is 0.00474 µM (active); in the assay on KM12, 0.0047 µM (active).

`CCCn1c(CN(Cc2nc3ccccc3n2CCC)Cc2nc3ccccc3n2CCC)nc2ccccc21`: the GI50 in the assay on SK-MEL-2 was 5.69 µM (inactive); with HOP-62, 10.8 µM (inactive); in the assay with IGROV-1 it was 1.94 µM (inactive); with HCC 2998, 5.68 µM (inactive); with OVCAR-3 it was 3.37 µM (inactive); with HCT-116, 1.74 µM (inactive). The GI50 is 4.39 µM in the assay with HCT-15; 3.7 µM (inactive) in the assay with UACC-62; 5.11 µM (inactive) in the assay on NCI-H23; 0.966 µM (active) in the assay on EKVX; 3.03 µM (inactive) with HOP-92; 0.764 µM (active) in the assay with HL-60. The GI50 was 10.7 µM (inactive) with SK-MEL-28; 2.04 µM (inactive) with RPMI-8226; 2.55 µM (inactive) in the assay with SK-MEL-5; 7.36 µM (inactive) in the assay on UACC-257; 2.59 µM (inactive) in the assay with A549; 3.21 µM (inactive) in the assay with MOLT-4. For the same compound, the GI50 in the assay with COLO 205 was 2.81 µM (inactive); in the assay with KM12, 4.68 µM (inactive).

With `CC(O)C(O)C(N)CC=O` (stereo not given), the GI50 with SK-MEL-2, in the assay with HOP-62, with IGROV-1, in the assay with HCC 2998, with OVCAR-3 and in the assay on HCT-116 was > 500 µM (inactive) throughout. In addition, the GI50 is greater than 500 µM in the assay with HCT-15; > 500 µM (inactive) in the assay with UACC-62; > 500 µM (inactive) in the assay on NCI-H23; 491 µM (inactive) in the assay with EKVX; > 500 µM (inactive) in the assay with HOP-92; 495 µM (inactive) in the assay with HL-60. Also, the GI50 with SK-MEL-28, with RPMI-8226, with SK-MEL-5, with UACC-257, in the assay on A549 and in the assay on MOLT-4 was > 500 µM (inactive) in each case. Also, the GI50 in the assay with COLO 205 and in the assay with KM12 was > 500 µM (inactive) in each case.

As for `O=C1C[C@H](Sc2ccccc2)C2(OCCO2)[C@H]2ON3CCC[C@@H]3[C@@H]12`, the GI50 with SK-MEL-2 was 3.75 µM (inactive); with HOP-62, 2.01 µM (inactive); with IGROV-1, 0.9 µM (active); in the assay with HCC 2998, 2.57 µM (inactive); in the assay with OVCAR-3, 0.904 µM (active); in the assay with HCT-116 it was 0.841 µM (active). Further, the GI50 in the assay on HCT-15 is 0.59 µM; in the assay with UACC-62 it was 1.73 µM (inactive); with NCI-H23, 1.91 µM (inactive); in the assay with EKVX it was 2.53 µM (inactive); with HOP-92 it was 1.24 µM (inactive); in the assay with HL-60, 1.06 µM (active). Besides, the GI50 with SK-MEL-28 was 2.49 µM (inactive); with RPMI-8226, 0.306 µM (active); in the assay with SK-MEL-5 it was 7.23 µM (inactive); with UACC-257 it was 2.72 µM (inactive); with A549, 2.89 µM (inactive); with MOLT-4 it was 0.333 µM (active). Also, the GI50 in the assay on COLO 205 is 1.66 µM (inactive); with KM12, 1.36 µM (inactive).

In the case of `C#C[C@]1(O)[C@@H](CO)O[C@@H](n2ccc(=O)[nH]c2=O)[C@@H]1O`, the GI50 is 0.15 µM (active) with SK-MEL-2; 0.147 µM (active) in the assay with HOP-62; 0.0745 µM (active) with IGROV-1; 0.0592 µM (active) in the assay on HCC 2998; 0.513 µM (active) in the assay with OVCAR-3; < 0.01 µM (active) with HCT-116. For the same compound, the GI50 with HCT-15 was 0.0186 µM; in the assay with UACC-62, 0.156 µM (active); in the assay with NCI-H23 it was 0.428 µM (active); with EKVX, 4.72 µM (inactive); in the assay with HOP-92, 0.132 µM (active); in the assay with HL-60, 0.356 µM (active). Besides, the GI50 in the assay with SK-MEL-28 is 0.791 µM (active); with RPMI-8226, 0.0101 µM (active); with SK-MEL-5, 0.441 µM (active); with UACC-257, 1.81 µM (inactive); in the assay on A549 it was 0.0308 µM (active); in the assay on MOLT-4 it was < 0.0177 µM (active). Besides, the values for the GI50 in the assay on COLO 205 and in the assay on KM12 were < 0.01 µM (active) and 0.144 µM (active), respectively.

`O=C(CCl)NC(Cc1ccc(F)cc1)C(=O)O` (stereo not given): the GI50 was > 100 µM (inactive) in the assay with SK-MEL-2; > 100 µM (inactive) in the assay on HOP-62; > 100 µM (inactive) in the assay on IGROV-1; > 92.7 µM (inactive) in the assay with HCC 2998; > 100 µM (inactive) in the assay with OVCAR-3; > 100 µM (inactive) with HCT-116. Further, the GI50 in the assay on HCT-15 was greater than 100 µM; in the assay on UACC-62 it was > 100 µM (inactive); in the assay with NCI-H23 it was > 100 µM (inactive); with EKVX, > 46 µM (inactive); in the assay with HOP-92, > 100 µM (inactive); in the assay on HL-60, > 100 µM (inactive). Besides, the GI50 with SK-MEL-28, in the assay on RPMI-8226, in the assay with SK-MEL-5, in the assay with UACC-257, in the assay with A549 and in the assay with MOLT-4 was > 100 µM (inactive) each time. In addition, the GI50 in the assay with COLO 205 and with KM12 was > 100 µM (inactive) in each case.

With `CCCSc1ccc2[nH]c(N3C(=O)/C(=C/c4cc(OC)c(OC)c(OC)c4)N=C3c3ccccc3)cc2c1`, the GI50 in the assay with SK-MEL-2 is 18.4 µM (inactive); in the assay with HOP-62 it was 1.39 µM (inactive); in the assay on IGROV-1 it was 9.38 µM (inactive); in the assay on HCC 2998 it was 13.2 µM (inactive); in the assay with OVCAR-3, 9.12 µM (inactive); with HCT-116, 16.5 µM (inactive). Besides, the GI50 in the assay on HCT-15 is 12.2 µM; in the assay with UACC-62 it was 8.61 µM (inactive); with NCI-H23 it was 10.9 µM (inactive); in the assay with EKVX, 5.74 µM (inactive); with HOP-92, 13.9 µM (inactive); in the assay with HL-60 it was 5.66 µM (inactive). The GI50 was 12.9 µM (inactive) in the assay on SK-MEL-28; 9.18 µM (inactive) in the assay with RPMI-8226; 7.53 µM (inactive) in the assay with SK-MEL-5; 13.8 µM (inactive) in the assay with UACC-257; 0.553 µM (active) in the assay with A549; 10.9 µM (inactive) in the assay on MOLT-4. Besides, the GI50 is 8.43 µM (inactive) with COLO 205 and 1.65 µM (inactive) with KM12.

With `O=C1c2ccccc2C(=O)N1[C@@H](Cc1ccccc1)C(=O)n1cccc1CO`, the GI50 with SK-MEL-2, in the assay with HOP-62, with IGROV-1, in the assay with HCC 2998, with OVCAR-3 and with HCT-116 was > 100 µM (inactive) in each case. Besides, the GI50 in the assay on HCT-15 is greater than 100 µM; in the assay with UACC-62 it was > 100 µM (inactive); with NCI-H23, > 100 µM (inactive); in the assay on EKVX, > 100 µM (inactive); in the assay with HOP-92, > 100 µM (inactive); with HL-60 it was > 100 µM (inactive). For the same compound, the GI50 is > 100 µM (inactive) in the assay with SK-MEL-28; 93.8 µM (inactive) with RPMI-8226; > 100 µM (inactive) in the assay with SK-MEL-5; > 100 µM (inactive) in the assay on UACC-257; > 100 µM (inactive) with A549; > 100 µM (inactive) in the assay with MOLT-4. Further, the GI50 in the assay on COLO 205 and with KM12 was > 100 µM (inactive) throughout.

Consider `O=S1(=O)CS(=O)(=O)OCCCO1`, for which the GI50 in the assay with SK-MEL-2, with HOP-62, in the assay on IGROV-1, with HCC 2998, in the assay with OVCAR-3 and in the assay with HCT-116 was > 100 µM (inactive) in each case. The GI50 in the assay on HCT-15 was greater than 100 µM; in the assay with UACC-62 it was > 100 µM (inactive); in the assay on NCI-H23, 68.5 µM (inactive); in the assay with EKVX it was > 100 µM (inactive); in the assay on HOP-92, > 100 µM (inactive); in the assay with HL-60, 59 µM (inactive). Further, the GI50 in the assay on SK-MEL-28 was > 100 µM (inactive); in the assay on RPMI-8226, > 100 µM (inactive); in the assay on SK-MEL-5 it was > 100 µM (inactive); in the assay with UACC-257 it was > 100 µM (inactive); in the assay with A549, > 100 µM (inactive); with MOLT-4, 51.3 µM (inactive). For the same compound, the GI50 with COLO 205 and with KM12 was > 100 µM (inactive) in each case.

As to `CC(C)(C)c1cc(C(=O)/C=C/c2ccc(O)c(O)c2O)cc(C(C)(C)C)c1O`, the GI50 in the assay on SK-MEL-2 was 4.41 µM (inactive); in the assay on HOP-62, 7.08 µM (inactive); in the assay on IGROV-1, 6 µM (inactive); in the assay on HCC 2998, 2.84 µM (inactive); with OVCAR-3, 3.52 µM (inactive); with HCT-116 it was 2.73 µM (inactive). Besides, the GI50 is 0.991 µM in the assay with HCT-15; 4.54 µM (inactive) with UACC-62; 4.03 µM (inactive) in the assay with NCI-H23; 4.83 µM (inactive) with EKVX; 5.68 µM (inactive) in the assay on HOP-92; 1.77 µM (inactive) in the assay with HL-60. The GI50 was 5.01 µM (inactive) in the assay with SK-MEL-28; 1.59 µM (inactive) in the assay on RPMI-8226; 5.6 µM (inactive) in the assay with SK-MEL-5; 3.05 µM (inactive) in the assay on UACC-257; 5.06 µM (inactive) in the assay on A549; 2.49 µM (inactive) with MOLT-4. The figures for the GI50 in the assay on COLO 205 and in the assay with KM12 were 11.8 µM (inactive) and 2.58 µM (inactive), respectively.
